Data set [1] relates to Plasmodium falciparum. Put plainly: Antimalarial activity against Plasmodium falciparum THAI. The class given is functional, organism-based.
Data set [2] concerns Plasmodium falciparum. As to the kind of experiment: Antimalarial activity against chloroquine-resistant Plasmodium falciparum FcB1. Type of data set: functional, organism-based.
Data set [3] deals with Plasmodium falciparum. As to the kind of experiment: Antimalarial activity against chloroquine-resistant Plasmodium falciparum K1. Type of data set: functional, organism-based.
Data set [4] addresses Plasmepsin II (Plasmodium falciparum, UniProt P46925). As to the kind of experiment: Inhibition of Plasmodium falciparum plasmepsin-2.
Data set [5] relates to Plasmodium falciparum. Put plainly: Antimalarial activity against chloroquine-resistant Plasmodium falciparum W2 at 9 uM. Type of data set: functional.
For data set [6], the system named is Plasmodium falciparum. Put plainly: Antimalarial activity against chloroquine-sensitive Plasmodium falciparum D10 at 9 uM. Type of data set: functional.
In data set [7] the test system is Plasmodium falciparum. As to the kind of experiment: Antimalarial activity against chloroquine-resistant Plasmodium falciparum TM91C235. Type of data set: functional, organism-based.
For data set [8], the system named is Plasmodium falciparum. As to the kind of experiment: Antimalarial activity against chloroquine-sensitive Plasmodium falciparum D6. The class given is functional, organism-based.
The test system of data set [9] is Plasmodium yoelii. As to the kind of experiment: Antimalarial activity as reduced parasitaemia at day 4 against Plasmodium yoelii N67 infected Swiss mice (Mus musculus) compared to chloroquine. More on the design: scale not given: the % may be the effect or the level left. The class given is functional, N-67.
Data set [10] has as its system Plasmodium falciparum. As to the kind of experiment: Antimalarial activity against Plasmodium falciparum NF54. The note with it: NF-54.
Data set [11] concerns Plasmodium yoelii. As to the kind of experiment: Antimalarial activity as mean survival time against Plasmodium yoelii N67 infected Swiss mice (Mus musculus). The class given is functional, N-67.
Data set [12] is filed under the species Homo sapiens. As to the kind of experiment: (§1) Terminal half life in human. The class given is ADME, organism-based. The note with it: in vivo.
Data set [13] in a line: Selectivity index, ratio of CD50 for human MRC5 cells to IC50 for Plasmodium falciparum FcB1/Columbia erythrocytes. The class given is functional.
The nature of data set [14]: Cytotoxicity against human MRC5 cells. The note with it: read-out: CD50 (the source's name). The class given is cell-based.
Data set [15] has as its system Plasmodium falciparum. Put plainly: Antimalarial activity against Plasmodium falciparum FcB1/Columbia erythrocytes […]. The class given is functional, organism-based.
The subject of data set [16] is Plasmodium falciparum. Put plainly: Antimalarial activity against Plasmodium falciparum FcB1R. The note with it: read-out: ED50 (the source's name).
Data set [17] concerns Plasmodium falciparum. As to the kind of experiment: Antimalarial activity as relative mean survival time against Plasmodium falciparum at 40 mg/kg for 4 days. The note with it: 96 h. The class given is functional.
The nature of data set [18]: as §1. Type of data set: ADME, organism-based. The note with it: in vivo, read-out: beta t1/2 (converted).
For data set [19], the system named is Plasmodium berghei. As to the kind of experiment: Gametocytocidal activity as oocysts per mosquito against Plasmodium berghei. The class given is functional.
The subject of data set [20] is Plasmodium berghei. Put plainly: Gametocytocidal activity as infected mosquitoes against Plasmodium berghei at 10 uM/kg. Type of data set: functional.
For data set [21], the system named is Plasmodium falciparum. As to the kind of experiment: Antimalarial activity against chloroquine-resistant Plasmodium falciparum Dd2. The class given is functional, organism-based.
Data set [22] concerns Plasmodium falciparum. Put plainly: Antimalarial activity against chloroquine-resistant Plasmodium falciparum W2. Type of data set: functional, organism-based.
Data set [23] deals with Plasmodium falciparum. Put plainly: Antimalarial activity against Plasmodium falciparum 3D7. The class given is functional, organism-based.

Data on eleven molecules can be found in ChEMBL document CHEMBL1153593, “Recent developments in the design and synthesis of hybrid molecules based on aminoquinoline ring and their antiplasmodial evaluation” (Eur J Med Chem, 2009).

Converted amounts (≈) assume the structure as drawn.

Chain of Plasmepsin II (P46925 whole entry): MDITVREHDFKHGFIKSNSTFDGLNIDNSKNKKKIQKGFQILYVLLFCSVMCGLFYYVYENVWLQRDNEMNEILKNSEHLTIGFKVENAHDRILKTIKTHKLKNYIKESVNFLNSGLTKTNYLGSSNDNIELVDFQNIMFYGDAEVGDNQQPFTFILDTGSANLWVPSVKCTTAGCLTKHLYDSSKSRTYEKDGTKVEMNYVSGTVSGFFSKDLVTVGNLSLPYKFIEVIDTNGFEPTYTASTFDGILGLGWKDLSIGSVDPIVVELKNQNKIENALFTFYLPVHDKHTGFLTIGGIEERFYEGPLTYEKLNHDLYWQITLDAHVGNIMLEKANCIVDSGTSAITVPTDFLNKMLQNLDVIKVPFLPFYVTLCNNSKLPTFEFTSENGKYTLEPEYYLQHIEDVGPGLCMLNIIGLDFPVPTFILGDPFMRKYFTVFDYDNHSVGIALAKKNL

Consider `O=C(CN1CCCCC1)Nc1cc(CN2CCCCC2)cc(Nc2ccnc3ccc(Cl)cc23)c1`, for which the results for the IC50 in [1], in data set [2] and in [3] were 6.7 nM, 10 nM and 8.1 nM, respectively.
The molecule `CCCCNC(=O)C[C@H](O)[C@H](CC(C)C)NC(=O)[C@@H](NC(=O)CCC(=O)N[C@H](C(=O)N[C@H](CCCCN)C(=O)NCCCC(C)Nc1cc(OC)cc2cccnc12)C(C)C)[C@H](C)CC` (some centres undefined) displayed an IC50 in data set [4] of 396 µM. The Activity in [5] turned out to be 40%; in data set [6] it was 20%.
Consider `CC(C)(C)NCc1c(Nc2ccnc3ccc(Cl)cc23)cc(O)cc1-c1ccc(Cl)cc1`, for which the IC50 in data set [7] and in [8] was 0.3 ng/mL (≈ 0.643 nM) throughout.
In data set [2], `O=C(CN1CCCCC1)Nc1cc(CN2CCN(c3ccccc3)CC2)cc(Nc2ccnc3ccc(Cl)cc23)c1` displayed an IC50 of 5.5 nM.
The molecule `CCN(CC)CCCC(C)Nc1ccnc2cc(Cl)ccc12` (centres undefined) [CHLOROQUINE] had an Activity in data set [9] of 99.9%. In [10], this molecule registered an IC50 of 106 nM and an MIC of 0.39 µM (≈ 0.125 µg/mL). In data set [11], this molecule returned a Survival of 20 days. Moreover, the “beta t1/2” value in data set [12] was determined as 1 months.
In the case of `COc1ccc(CNCc2cc(NC(=O)CN3CCCCC3)cc(Nc3ccnc4ccc(Cl)cc34)c2)cc1`, the IC50 in data set [2] came out at 4.4 nM.
On to `CCCCCCCNCCCN1CCN(CCCNc2ccnc3cc(Cl)ccc23)CC1`, for which the “Selectivity Index” value in data set [13] is listed as less than 326. For the same molecule, in data set [14], the CC50 was less than 3.1 µM. Further, in data set [15], the midpoint of inhibition, the IC50, lay at 9.5 nM.
Take `O=C(CN1CCCCC1)Nc1cc(CN2CCOCC2)cc(Nc2ccnc3ccc(Cl)cc23)c1`: the IC50 in data set [1] was determined as 12.8 nM; in data set [2], 9.6 nM; in data set [3], 12.4 nM.
For the molecule `O=C(CN1CCCCC1)Nc1cc(COC(=O)CCCCCC2=CC(=O)c3ccccc3C2=O)cc(Nc2ccnc3ccc(Cl)cc23)c1`, in data set [16], the EC50 was 23 nM. For the same molecule, the survival at 40 mg/kg in data set [17] came out at 178%.
`COc1cc(NC(C)CCCN)c2ncccc2c1` (centres undefined) [PRIMAQUINE]: the half-life in [18] is 14 days. Moreover, the Activity in data set [19] worked out at 2.6; in data set [20], 28%.
In the case of `CCCCN(CCCNc1ccnc2cc(Cl)ccc12)Cc1cc(Br)ccc1O`, the IC50 in data set [21], in [22] and in [23] was 45 nM throughout.

As a reminder, the IC50 is the concentration needed to halve the response being measured. A word on the MIC: it is the smallest concentration in the dilution series that meets the test's criterion for growth inhibition.
